Measured values from paper PMC6499206, “Quantification of Volatile Metabolites Derived From Garlic (Allium sativum) in Human Urine” (Frontiers in Nutrition, 2019).

Assay: Quantification of garlic-derived metabolites in human urine after ingestion of 3 g raw garlic (SIDA, SAFE, HRGC-MS / HRGC-GC-MS)
Format: in vivo
Settings: human urine; also refs 5, 16
Source text: Human urine samples were obtained from 18 volunteers (age 22–38 years, mean 27 years; 11 females, 7 males); thereby, one volunteer conducted the whole experimental series twice. At the time of examination, volunteers reported no known illness that might have potentially influenced the metabolism or the excretion of urine. The test persons were instructed to avoid foods that were rich in sulfur-containing substances at the testing day as well as 2 days preceding the testing day, namely garlic, onion, wild garlic, chives, cabbage, and leek, and were only allowed to consume the garlic sample provided in the course of the experiments. Additionally, subjects were asked to keep records of the food (including food supplements) and beverages they consumed during these 3 testing days. Generally, the overall panelists' requirements were in accordance with our previous studies ([5], [16]).
On the sampling day, the outer garlic cloves of a whole garlic bulb were peeled and cut into ~3 mm cubes by using a garlic cutter (Genius GmbH, Limburg/Lahn, Germany). Subsequently these cubes were thoroughly mixed and aliquoted into 3 g portions. Three to four test persons conducted the experiment at the same day. Each test person was asked to ingest a garlic portion of 3 g. In total, eight consecutive urine samples were provided by each test person, comprising one whole urine set. The samples were collected in sterile brown glass bottles, with sampling times as follows: one sample was provided directly prior to garlic consumption. The series of the second to eighth sample was then obtained at about 0.5, 1, 2, 4, 6, 8, and 24 h after garlic consumption, respectively. Between the first urine sample (prior to garlic consumption) and the seventh urine sample (8 h after garlic consumption) test persons only spent urine at the specific time points mentioned before. Another sample was provided at the next morning (24 h after garlic consumption). Between the samples provided 8 and 24 h after garlic consumption no urine was collected. All samples were immediately placed into a −80°C freezer and were kept frozen until further analysis.
The samples of each set were termed according to their sampling time. The following list provides the time intervals that are related to the respective sample name: • - pre: before garlic consumption • - 0.5 h post: 0.4–0.8 h after garlic consumption • - 1 h post: 0.9–1.3 h after garlic consumption • - 2 h post: 1.8 h−2.2 h after garlic consumption • - 4 h post: 3.8–4.4 h after garlic consumption • - 6 h post: 5.8–6.4 h after garlic consumption • - 8 h post: 7.8–8.4 h after garlic consumption • - 24 h post: 23.8–25.6 h after garlic consumption
A creatinine kit (Labor+Technik Eberhard Lehmann GmbH, Berlin, Germany) was used to determine the creatinine content in each urine sample. The determination principle of this kit is based on the reaction of creatinine with picric acid under basic conditions (Jaffé reaction). The formed complex was detected photometrically at a wavelength of 492 nm.
For quantification purposes, the deuterated standards ^2H3-AMS, ^2H3-AMSO, and ^2H3-AMSO2 were added to the sample and stirred for 10 min. Subsequently, DCM was added in a ratio of 1:2 (DCM/human urine; v/v) and this solution was stirred for further 30 min at room temperature. To isolate the volatile fraction from the urine samples we then applied SAFE-distillation ([17]), thereby distilling the respective samples at 50°C. After completion of the distillation process, 10 mL of DCM were applied in each case to rinse the SAFE apparatus and to ensure complete transition of the volatile compounds. This process was repeated with another 10 mL of DCM. After thawing, the obtained aqueous distillate phase was extracted three times with 25 mL DCM. The organic phases were combined, dried over anhydrous Na2SO4 and concentrated to a total volume of 100 μL by means of Vigreux distillation and subsequent micro-distillation at 50°C. […]

- presence as metabolite in human urine after garlic consumption: exclude the presence
SMILES: C=CCS(=O)(=O)CC=C [diallyl sulfone]
